Assay results from patent US20180311220A1, “TREATMENT OF CANCERS WITH ACQUIRED RESISTANCE TO KIT INHIBITORS” (Bayer HealthCare LLC, priority 2007, published 2018).

Columns and labels:
Format in all cases: cell-based, murine
[1] = system: Ba/F3 cells expressing human c-KIT exon 11 deletion + T6701; test: Ba/F3 cell proliferation assay (CellTiter-Glo), c-KIT exon 11 deletion + T6701; conditions: BaF3; Exon 11 +T6701; n ≥ 3; 72 h incubation; read-out: Average IC50 for c-KIT-expressing Ba/F3 cellular proliferation, Exon 11 +T6701
Protocol: (§1) The cDNA encoding full length human c-KIT with a deletion in exon 11 that removed amino acid residues 557-558 was ligated into the mammalian expression vector pClneo (Promega). […] All mutations were confirmed by DNA sequencing.
(§2) Selective pressure was applied to the transfected cells by removing IL-3 from the culture medium. After IL-independent populations, further selective pressure was applied by also growing the cells in the presence of 1 mg/mL G418. […] The stable pools were further characterized by sequencing genomic DNA to confirm the presence of the transfected c-KIT cDNA.
(§3) This assay utilizes cellular ATP as a marker for cell proliferation/viability. On day 1, Ba/F3 cells were plated in 96 well dishes (Costar 3603) at 10,000 cells per well in 10% FBS in RPMI medium with 1 mg/ml G418. […] Plates were then incubated in a 5% CO2 incubator at 37° C. for 3 days. […] The cells were then incubated on a shaker for 5 minutes at room temperature, and luminescence was measured on a Victor 5 (Perkin Elmer) spectrophotometer.
(§4) Growth inhibition was measured by comparing luminescence signal from treated vs. untreated cells in assay plates, and the IC50 analysis of cell proliferation inhibition by compounds was analyzed using Analyze 5 in-house software. The IC50 values are mean values calculated from at least three experiments.

[2] = system: Ba/F3 cells expressing human c-KIT with exon 11 deletion (residues 557-558); test: Ba/F3 cell proliferation assay (CellTiter-Glo), c-KIT exon 11 deletion; conditions: BaF3, n ≥ 3, 72 h incubation, read-out: Average IC50 for c-KIT-expressing Ba/F3 cellular proliferation, Exon 11 Deletion
Protocol: as §1, §2, §3, §4

[3] = system: Ba/F3 cells expressing human c-KIT exon 11 deletion + V654A; test: Ba/F3 cell proliferation assay (CellTiter-Glo), c-KIT exon 11 deletion + V654A; conditions: BaF3; Exon 11 + V654A; n ≥ 3; 72 h incubation; read-out: Average IC50 for c-KIT-expressing Ba/F3 cellular proliferation, Eson 11 + V654A
Protocol: as §1, §2, §3, §4

[4] = system: Ba/F3 cells expressing human c-KIT exon 11 deletion + N822K; test: Ba/F3 cell proliferation assay (CellTiter-Glo), c-KIT exon 11 deletion + N822K; conditions: BaF3; Exon 11 + N822K; n ≥ 3; 72 h incubation; read-out: Average IC50 for c-KIT-expressing Ba/F3 cellular proliferation, Exon 11 + N822K
Protocol: as §1, §2, §3, §4

[5] = system: Ba/F3 cells expressing human c-KIT exon 11 deletion + D816G; test: Ba/F3 cell proliferation assay (CellTiter-Glo), c-KIT exon 11 deletion + D816G; conditions: BaF3; Exon 11 + D816G; n ≥ 3; 72 h incubation; read-out: Average IC50 for c-KIT-expressing Ba/F3 cellular proliferation, Exon 11 + D816G
Protocol: as §1, §2, §3, §4

[6] = system: Ba/F3 cells expressing human c-KIT exon 11 deletion + Y823D; test: Ba/F3 cell proliferation assay (CellTiter-Glo), c-KIT exon 11 deletion + Y823D; conditions: BaF3; Exon 11 + Y823D; n ≥ 3; 72 h incubation; read-out: Average IC50 for c-KIT-expressing Ba/F3 cellular proliferation, Exon 11 + Y823D
Protocol: as §1, §2, §3, §4

CNC(=O)c1cc(Oc2ccc(NC(=O)Nc3ccc(Cl)c(C(F)(F)F)c3)c(F)c2)ccn1 [DAST, 4{4-[3-(4-chloro-3-trifluoromethylphenyl)-ureido]-3-fluorophenoxy}-pyridine-2-carboxylic acid methylamide]
IC50 [1]: 19 nM
IC50 [2]: 7 nM
IC50 [3]: 38 nM
IC50 [4]: 12 nM
IC50 [5]: 14 nM
IC50 [6]: 129 nM
